In PMC10295897, “A Novel MDM2-Binding Chalcone Induces Apoptosis of Oral Squamous Cell Carcinoma” (Biomedicines, 2023):

Assays:
SCC4 cells = experiment: MTT cell viability assay, SCC4 cells; format: cell-based, human
Protocol: (§1) Human SCC-4, SCC-9, and SCC-25 cells derived from a human oral tongue SCC (squamous cell carcinoma) were obtained from the ATCC (CRL-1624, CRL-1629, and CRL-1628, respectively) and maintained in 1:1 DMEM/F12 (Dulbecco’s modified Eagle medium and Ham’s F12 medium; Gibco (Thermo Fisher, Waltham, MA, USA)) supplemented with 10% (v/v) FBS (fetal bovine serum; Invitrogen, Thermo Fisher, Waltham, MA, USA) and 400 ng/mL hydrocortisone (Sigma-Aldrich Co., St. Louis, MO, USA). Primary normal human gingival fibroblasts were obtained from the ATCC (PCS-201-018; HGF) and maintained in DMEM supplemented with 10% (v/v) FBS and were used in a maximum of six passages. The cells were grown in a humidified environment containing 5% CO2 at 37 °C. For all biological experiments, the compounds and control nutlin 3a were solubilized in 100% DMSO (all Sigma-Aldrich) to a final concentration of 10 mM. Carboplatin stock was prepared in water (Fauldcarbo®; LibbsFarmacêutica, São Paulo, SP, Brazil) and was used as a standard anticancer compound.
(§2) The viability of SCC cell lines, HT-29, HCT-116, HEP2G and primary human fibroblast cells was evaluated using the MTT assay as in [26]. Briefly, the cells were grown in duplicates in 96-well plates (5 × 10^3 cells/well) until confluence. Then, the medium was removed, fresh medium was added, and the cells were returned to the incubator in the presence of different compounds. DMSO at the same concentrations was used as a 100% cell viability control. After 48 h, the cells were incubated with 5 mg/mL MTT reagent (3-(4,5-dimethyl-2-thiazolyl)-2,5-diphenyl-2-H-tetrazolium bromide) (Sigma-Aldrich Co., St. Louis, MO, USA) for 3.5 h. After that, formazan crystals were dissolved in MTT solvent solution (DMSO/methanol 1:1 v/v), and the absorbance at 560 nm was evaluated using an EPOCH microplate spectrophotometer (BioTek Instruments, Winooski, VT, USA) with the background absorbance at 670 nm subtracted. Each of the six compounds was tested at six or seven different concentrations, ranging from 0.3 µM to 200 µM in cancer cell lines (SCC-4, SCC-9 and SCC-25) and 0.3 µM to 200 µM in primary normal human gingival fibroblasts. Controls (carboplatin, nutlin 3a) were tested at six or seven different concentrations ranging from 0.05 µM to 1000 µM in cancer cells and normal cells, depending on the compound.
(§3) The data are presented as means ± SD. IC values for the MTT assays were obtained by nonlinear regression using the […] 5.0 program (Intuitive Software for Science, San Diego, CA, USA) from at least three independent experiments. A dose–response (inhibitor) vs. response curve using the least squares method was used to determine the IC50, SD, and R^2 of the data. The selectivity index was calculated as SI = IC50 of the compound in normal oral fibroblast cells/IC50 of the same compound for each cancer cell line (SCC-4, SCC-9, SCC-25, HCT-116, HT29 and HEP2G), and the mean was calculated when indicated.

HEP2G (hepatocarcinoma) = experiment: MTT cell viability assay, HEP2G; format: cell-based; conditions: 48 h
Protocol: as §2, with “Each of the six compounds was tested at six or seven different concentrations, ranging from 0.3 µM to 200 µM in cancer cell lines (SCC-4, SCC-9 and SCC-25) and 0.3 µM to 200 µM in primary normal human gingival fibroblasts. Controls (carboplatin, nutlin 3a) were tested at six or seven different concentrations ranging from 0.05 µM to 1000 µM in cancer cells and normal cells, depending on the compound.” left out
The data are presented as means ± SD. […] The selectivity index was calculated as SI = IC50 of the compound in normal oral fibroblast cells/IC50 of the same compound for each cancer cell line (SCC-4, SCC-9, SCC-25, HCT-116, HT29 and HEP2G), and the mean was calculated when indicated.

[1] = tested on: Oral Tumor Cells (SCC9, SCC25, SCC4); experiment: MTT assay, average over oral tumor cells; format: cell-based, human
Protocol: as §2, §3

[2] = tested on: Primary Gingival Fibroblast (HGF); experiment: MTT cell viability assay, primary normal gingival fibroblasts; format: cell-based, human; conditions: Homo sapiens, Fibroblast, 48 h
Protocol: as §1, §2, §3

SCC9 cells = experiment: Cell cycle and SubG1 analysis (PI flow cytometry); format: cell-based, human; conditions: SCC9, 2 × IC50, 48 h, PI staining
Protocol: To evaluate the action of compound 1f on the cell cycle and DNA fragmentation, SCC9 cell line cells were plated in a 6-well plate (5 × 10^5 cells/well). After 48 h of treatment, the cells were trypsinized and stained with propidium iodide (75 µM) in the presence of NP-40. The DNA content was analyzed by collecting 10,000 events using a FACScalibur flow cytometer. The data were analyzed using CellQuest (BD Biosciences, Franklin Lakes, NJ, USA) and FlowJo (Tree Star Inc., Ashland, OR, USA) software as in [34].

Hemolysis assay = format: cell-based; conditions: human erythrocytes; vs Triton X-100 = 100%; 300 µM (method) / 500 µM (Figure 2)
Protocol: To determine the surfactant power of substances in biological membranes, a hemolysis assay was performed using human blood approved by the Research Ethics Committee of Universidade Federal Fluminense (CAAE: 43134721.4.0000.5626). Erythrocytes were collected by centrifugation at 1500 rpm for 15 min, washed with PBS (phosphate-buffered saline) supplemented with 10 mM glucose, and counted in an automatic cell counter (Thermo Fisher, Waltham, MA, USA). Erythrocytes were then plated in 96-well plates at a concentration of 4 × 10^8 cells/well in triplicates, and 10 µL of compounds was added at a final concentration of 300 µM in PBS with glucose (final volume 100 µL). In total, 10 µL of PBS was used as a negative control and 10 µL of PBS with 0.1% Triton X-100 as a positive control. Data reading was performed with EPOCH (BioTek Instruments, Winooski, VT, USA) at an absorbance of 540 nm, and the statistical data were generated using the […] Prism 5.0 program (Intuitive Software for Science, San Diego, CA, USA).

[3] = Solubility observed during in vitro testing; format: physicochemical; conditions: in vitro cytotoxicity testing
HT29 (adenocarcinoma) = experiment: MTT cell viability assay, HT29; format: cell-based
Protocol: as §2, §3

## Cc1cccc(C)c1-n1cc(/C=C/C(=O)c2ccccc2N)nn1 [1f, (E)-1-(2-Aminophenyl)-3-(1-(2,6-dimethylphenyl)-1H-1,2,3-triazol-4-yl)prop-2-en-1-one]
SCC4 cells; Homo sapiens, SCC-4, 48 h, MTT
  IC50: 4.73 µM
SCC4 cells; selective index = IC50 HGF / IC50 SCC4
  SCC4 S.I.: 6.25
HEP2G (hepatocarcinoma)
  IC50: 39.4 µM
[1]; Homo sapiens, mean of SCC9, SCC25, SCC4
  IC50: 4.54 µM
[1]; IC50 of normal primary fibroblasts / average IC50 of tumor cells
  Average S.I.: 6.51
[2]
  IC50: 29.6 µM
SCC9 cells
  cells in G2/M phase: 44.0%
  fragmentation of DNA (Sub-G1 DNA-content): 23.3%
Hemolysis assay
  hemolysis at 300 µM: < 2%
[3]
  solubility (in words): highly soluble
HT29 (adenocarcinoma); Homo sapiens, HT-29, 48 h, MTT
  IC50: 3.92 µM
HT29 (adenocarcinoma); IC50 HGF / IC50 HT29
  HT29 S.I.: 7.55
